# Where two headings read alike, the source gives them in different places.
# Assays:
# [1] = system: S. aureus MSSA-7 producing penicillinase PC-1; assay: broth microdilution MIC, S. aureus PC-1; format: cell-based; details: partner antibiotic alone, S. aureus producing PC-1
# Text: (§1) To determine the ability of test compounds to potentiate the inhibition of the growth of bacterial strains that produce beta-lactamase enzymes, classic cell based broth microdilution MIC assays were employed. Six bacteria strains producing beta-lactamase enzymes were used: E. coli expressing the Class A Extended Spectrum Beta-Lactamase (ESBL) CTX-M-15, E. cloacae expressing the Class C P99, K. pneumoniae expressing the Class A carbapenemase KPC-3, P. aeruginosa expressing the Class B carbapenemase VIM-2, K pneumoniae expressing the class A carbapenemase KPC-2 and the class B carbapenemase VIM-4, and S. aureus producing the Class A penicillinase PC-1. The assay was conducted in Cation Adjusted Mueller Hinton Broth (CAMHB, BD #212322, BD Diagnostic Systems, Sparks, Md.). Bacteria strains were grown for 3-5 hours in CAMBH broth. Test compounds were added to a microtiter plate in 2-fold serial dilutions in CAMHB in a final concentration range of 32 μg/mL to 0.25 μg/ml. An overlay of CAMHB containing a Beta-lactam was added to the compounds at a final static concentration of 4 μg/ml. […] In addition to the titration of test compounds the MICs of a panel of control beta-lactams is also tested to ensure the strains are behaving consistently from test to test. Once the test compound and antibiotics are added the plates can be inoculated according to CLSI broth microdilution method. After inoculation the plates are incubated for 16-20 hours at 37° C., then the Minimal Inhibitory Concentration (MIC) of the test compound is determined visually.
# (§2) Using the methodology described above, examples of the current invention were evaluated for their ability to inhibit the growth of β-lactamase-producing bacteria in the presence of a β-lactam antibiotic.
# (§3) Representative results are shown in Table 4 where A represents an MIC of the fixed β-lactam antibiotic in the presence of >32 µg/mL of a β-lactamase inhibitor of exemplary compounds, B represents the MIC in the presence of between 8 and 32 µg/mL of a β-lactamase inhibitor of exemplary compounds, and C represents the MIC in the presence of ≤4 µg/mL of a β-lactamase inhibitor of exemplary compounds. NT=Not Tested.
# OXA-1 β-lactamase = molecular target: T1, OXA-1 β-lactamase (Escherichia coli, UniProt P13661); assay: β-lactamase enzyme inhibition, OXA-1; format: biochemical; details: Nitrocefin 100 μM, 486 nm; 15 min at 37° C. preincubation; read-out: IC50 OXA-1 (Class D)
# T1 construct: made in house; host or cells: E. coli BL21(DE3)
# T1 sequence (P13661 26-276): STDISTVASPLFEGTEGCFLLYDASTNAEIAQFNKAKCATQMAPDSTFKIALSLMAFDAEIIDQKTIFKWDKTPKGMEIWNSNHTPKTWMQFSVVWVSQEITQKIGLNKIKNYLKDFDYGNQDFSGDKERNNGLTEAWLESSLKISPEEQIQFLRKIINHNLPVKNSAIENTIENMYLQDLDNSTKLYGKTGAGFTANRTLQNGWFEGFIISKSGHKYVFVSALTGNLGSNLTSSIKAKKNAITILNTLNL
# Summary of the method: (§4)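 Enzyme + inhibitor, 15 min, 37° C; substrate added, absorbance read 10 min. OXA-1/p99 AmpC: nitrocefin 100 μM final, A486. KPC-2: imipenem, A300. SHV-5: cefotaxime, A260. IC50 = 50% drop in initial hydrolysis rate vs no-inhibitor control.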
# [2] = system: E. coli ESBL4 expressing CTX-M-15; assay: broth microdilution MIC, E. coli CTX-M-15; format: cell-based; details: Fixed CAZ (ceftazidime) 4 μg/mL
# Summary of the method: (§5)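 The inhibitor is titrated in twofold steps (final 32 to 0.25 μg/mL) alongside a static 4 μg/mL beta-lactam in CAMHB, with CLSI inoculation. After 16-20 hours at 37° C, growth inhibition is scored by eye.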
# p99 AmpC β-lactamase = molecular target: T2, p99 AmpC β-lactamase (Enterobacter cloacae, UniProt P05364); assay: β-lactamase enzyme inhibition, p99 AmpC; format: biochemical
# T2 construct: made in house; host or cells: E. coli BL21(DE3)
# T2 sequence (P05364 21-381): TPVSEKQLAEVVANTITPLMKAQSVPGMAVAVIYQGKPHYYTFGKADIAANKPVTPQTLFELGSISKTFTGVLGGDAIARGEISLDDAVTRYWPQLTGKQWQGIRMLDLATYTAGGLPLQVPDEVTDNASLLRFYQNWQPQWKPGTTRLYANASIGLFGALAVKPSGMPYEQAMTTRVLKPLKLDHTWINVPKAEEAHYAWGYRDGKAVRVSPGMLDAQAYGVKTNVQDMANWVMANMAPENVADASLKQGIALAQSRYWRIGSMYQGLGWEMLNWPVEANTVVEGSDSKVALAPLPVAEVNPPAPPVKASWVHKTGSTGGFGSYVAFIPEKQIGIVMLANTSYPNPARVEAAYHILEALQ
# Summary of the method: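 Inhibitor and enzyme were incubated 15 min at 37°C first. The enzyme was recombinant p99 AmpC, untagged, from E. coli BL21(DE3), purified by ion-exchange and size-exclusion chromatography.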
# [3] = system: P. aeruginosa Ps296 expressing VIM-2; assay: broth microdilution MIC, P. aeruginosa VIM-2; format: cell-based; details: Fixed Mero (meropenem) 4 μg/mL
# Text: as §1, §2, §3
# [4] = system: E. cloacae 144200 expressing Class C P99 AmpC; assay: broth microdilution MIC, E. cloacae P99; format: cell-based; details: Fixed CAZ (ceftazidime) 4 μg/mL
# Summary of the method: as §5
# SHV-5 β-lactamase = molecular target: T3, SHV-5 β-lactamase (Klebsiella pneumoniae, UniProt P0A3M1); assay: β-lactamase enzyme inhibition, SHV-5; format: biochemical
# T3 construct: made in house; host or cells: E. coli BL21(DE3)
# T3 sequence (P0A3M1 22-286): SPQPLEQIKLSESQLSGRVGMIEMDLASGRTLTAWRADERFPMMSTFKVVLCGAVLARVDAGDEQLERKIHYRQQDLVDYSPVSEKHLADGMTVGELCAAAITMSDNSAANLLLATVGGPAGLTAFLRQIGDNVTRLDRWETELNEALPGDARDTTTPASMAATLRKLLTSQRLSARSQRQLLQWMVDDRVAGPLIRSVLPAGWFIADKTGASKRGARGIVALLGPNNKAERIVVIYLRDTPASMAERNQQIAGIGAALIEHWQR
# Summary of the method: as §4
# [5] = system: K. pneumoniae 156319 expressing KPC-3; assay: broth microdilution MIC, K. pneumoniae KPC-3; format: cell-based; details: Fixed Mero (meropenem) 4 μg/mL
# Summary of the method: as §5
# [6] = molecular target: T4, VIM-2 metallo β-lactamase (Pseudomonas aeruginosa, UniProt Q9K2N0); assay: β-lactamase enzyme inhibition, VIM-2; format: biochemical; details: Nitrocefin 100 μM, 486 nm; 15 min at 37° C. preincubation; read-out: IC50 VIM-2 (Class B)
# T4 construct: made in house; host or cells: E. coli BL21(DE3)
# Summary of the method: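 Inhibitor and enzyme sat together 15 min at 37° C before 100 μM nitrocefin (final) was added and 486 nm absorbance read for 10 min. IC50 is the concentration halving initial hydrolysis rate relative to uninhibited wells. Protein came from Q sepharose anion exchange at pH 7.5, repeated to >90% purity.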
# [7] = system: K. pneumoniae A-1797 expressing KPC-2 and VIM-4; assay: broth microdilution MIC, K. pneumoniae KPC-2 and VIM-4; format: cell-based; details: Fixed Mero (meropenem) 4 μg/mL
# Summary of the method: as §5
# KPC-2 β-lactamase = molecular target: T5, KPC-2 β-lactamase (Klebsiella pneumoniae, UniProt Q9F663); assay: β-lactamase enzyme inhibition, KPC-2; format: biochemical
# T5 construct: made in house; host or cells: E. coli BL21(DE3)
# T5 sequence (Q9F663 25-293, looked up): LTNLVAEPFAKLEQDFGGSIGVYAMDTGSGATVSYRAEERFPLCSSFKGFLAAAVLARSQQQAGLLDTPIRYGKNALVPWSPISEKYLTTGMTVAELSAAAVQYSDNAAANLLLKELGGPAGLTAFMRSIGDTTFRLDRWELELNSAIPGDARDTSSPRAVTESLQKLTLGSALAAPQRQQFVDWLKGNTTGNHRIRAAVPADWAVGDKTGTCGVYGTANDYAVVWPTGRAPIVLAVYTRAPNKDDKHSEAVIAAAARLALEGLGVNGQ
# Summary of the method: as §4
# [8] = imipenem substrate, 300 nm, 15 min at 37° C. preincubation, read-out: IC50 KPC-2 (Class A)
Structure (SMILES),MIC alone [1] [µg/mL],IC50 (OXA-1 β-lactamase) [nM],"MIC of exemplary compounds in presence of fixed β-lactams, E. coli ESBL4 CTX-M-15 [2]",IC50 (p99 AmpC β-lactamase) [nM],"MIC of exemplary compounds in presence of fixed β-lactams, P. aerug. Ps296 VIM-2 [3]","MIC of exemplary compounds in presence of fixed β-lactams, E. cl. 144200 p99 AmpC [4]",IC50 (SHV-5 β-lactamase) [nM],"MIC of exemplary compounds in presence of fixed β-lactams, K.P. 156319 KPC-3 [5]",IC50 [6] [nM],"MIC of exemplary compounds in presence of fixed β-lactams, K.P. A-1797 KPC-2 VIM-4 [7]",IC50 (KPC-2 β-lactamase) [nM],IC50 (KPC-2 β-lactamase; [8]) [nM]
"CCN1CCN(C(=O)N[C@@H](C(=O)N[C@@H]2C(=O)N3[C@@H]2SC(C)(C)[C@@H]3C(=O)O)c2ccccc2)C(=O)C1=O [Piperacillin, piperacillin, reference compound]",64,,,,,,,,,,,
"O=C(CCC(F)(F)F)N[C@H]1Cc2cccc(C(=O)O)c2OB1O [Example 7, (R)-2-Hydroxy-3-(4,4,4-trifluoro-butyrylamino)-3,4-dihydro-2H-benzo[e][1,2]oxaborinine-8-carboxylic acid]",,< 100,C (C represents the MIC in the presence of ≤4 g/mL of a β-lactamase inhibitor),< 100,B (B represents the MIC in the presence of between 8 and 32 g/mL of a β-lactamase inhibitor),C (C represents the MIC in the presence of ≤4 g/mL of a β-lactamase inhibitor),< 100,C (C represents the MIC in the presence of ≤4 g/mL of a β-lactamase inhibitor),1000 to 10000,A (A represents an MIC of the fixed β-lactam antibiotic in the presence of >32 g/mL of a β-lactamase inhibitor),< 100,
"O=C(CC(C(F)(F)F)C(F)(F)F)N[C@H]1Cc2cccc(C(=O)O)c2OB1O [Example 9, (R)-2-Hydroxy-3-(4,4,4-trifluoro-3-trifluoromethyl-butyrylamino)-3,4-dihydro-2H-benzo[e][1,2]oxaborinine-8-carboxylicacid]",,100 to 1000,B (B represents the MIC in the presence of between 8 and 32 g/mL of a β-lactamase inhibitor),< 100,A (A represents an MIC of the fixed β-lactam antibiotic in the presence of >32 g/mL of a β-lactamase inhibitor),C (C represents the MIC in the presence of ≤4 g/mL of a β-lactamase inhibitor),< 100,B (B represents the MIC in the presence of between 8 and 32 g/mL of a β-lactamase inhibitor),10000 to 100000,A (A represents an MIC of the fixed β-lactam antibiotic in the presence of >32 g/mL of a β-lactamase inhibitor),,100 to 1000
"CC(=O)CC(=O)CCC(=O)N[C@H]1Cc2cccc(C(=O)O)c2OB1O [Example 41, (R)-3-(4,6-Dioxo-heptanoylamino)-2-hydroxy-3,4-dihydro-2H-benzo[e][1,2]oxaborinine-8-carboxylic acid]",,< 100,C (C represents the MIC in the presence of ≤4 g/mL of a β-lactamase inhibitor),< 100,,C (C represents the MIC in the presence of ≤4 g/mL of a β-lactamase inhibitor),< 100,B (B represents the MIC in the presence of between 8 and 32 g/mL of a β-lactamase inhibitor),< 100,C (C represents the MIC in the presence of ≤4 g/mL of a β-lactamase inhibitor),,100 to 1000

# Reference: patent publication US11008346B2, “Beta-lactamase inhibitors” (priority 2014, dated 2021)
